Consider two compounds from patent US20240294467A1, “USP9X Inhibitors” (ProDeg, LLC, priority 2021, published 2024).

Assay [1] concerns the target T1, USP9X (Homo sapiens (Human), UniProt Q93008). Kind of assay: Steady-state enzyme inhibition kinetics of USP9X. The assay is classed as biochemical. From the text: The data were fit to a general model for enzyme inhibition (FIG. 1E) so the values of the parameters determined from the assays specified the mode of inhibition. For example, in the case of α=1 and β=0, it corresponded to purely non-competitive inhibition. For α=infinity and p=1, it corresponded to purely competitive inhibition. The values of all the parameters, KS, KI, kcat, α, and β could be determined from the steady state measurements. The enzyme reactions were set up as described in the Inhibiting the catalytic activity of USP9X section. The concentration of the substrate ubqiutin-rhodamine110 was varied. The initial rates of the reactions were determined at several concentrations of the inhibitor Compound 2A. In order to determine the values of the parameters KS and kcat, the reaction rates in the absence of the inhibitor Compound 2A, the initial reaction rate data were fit to the standard Michaelis-Menten equation v=Vmax [S]/(Km+[S]). The values of α and β could then be determined by fitting the initial rate data of the enzyme reaction at various concentrations of Compound 2A to a modified version of the Michaelis-Menten equation, designating both Vmax and KS apparent to distinguish the apparent values of the parameters determined from these plots to the true values for these parameters determined from the steady state kinetics in the absence of Compound 2A. The values of α and β could be determined from the variation of the slopes and intercepts of the series of double reciprocal plots of 1/v versus 1/[S] for each concentration of Compound 2A. […] The two values determined for KI were from the two different plots.
The two values for KI were determined by two different methods for determining this parameter from the kinetic data: 1 represented a value determined from the slope of the 1/A intercept vs 1/[I] plot; 2 represented a value determined from the y intercept of the 1/A slope vs 1/[I] plot. […] Only the values of the parameters varied for the compounds.
Target sequence in this assay (Q93008 whole entry): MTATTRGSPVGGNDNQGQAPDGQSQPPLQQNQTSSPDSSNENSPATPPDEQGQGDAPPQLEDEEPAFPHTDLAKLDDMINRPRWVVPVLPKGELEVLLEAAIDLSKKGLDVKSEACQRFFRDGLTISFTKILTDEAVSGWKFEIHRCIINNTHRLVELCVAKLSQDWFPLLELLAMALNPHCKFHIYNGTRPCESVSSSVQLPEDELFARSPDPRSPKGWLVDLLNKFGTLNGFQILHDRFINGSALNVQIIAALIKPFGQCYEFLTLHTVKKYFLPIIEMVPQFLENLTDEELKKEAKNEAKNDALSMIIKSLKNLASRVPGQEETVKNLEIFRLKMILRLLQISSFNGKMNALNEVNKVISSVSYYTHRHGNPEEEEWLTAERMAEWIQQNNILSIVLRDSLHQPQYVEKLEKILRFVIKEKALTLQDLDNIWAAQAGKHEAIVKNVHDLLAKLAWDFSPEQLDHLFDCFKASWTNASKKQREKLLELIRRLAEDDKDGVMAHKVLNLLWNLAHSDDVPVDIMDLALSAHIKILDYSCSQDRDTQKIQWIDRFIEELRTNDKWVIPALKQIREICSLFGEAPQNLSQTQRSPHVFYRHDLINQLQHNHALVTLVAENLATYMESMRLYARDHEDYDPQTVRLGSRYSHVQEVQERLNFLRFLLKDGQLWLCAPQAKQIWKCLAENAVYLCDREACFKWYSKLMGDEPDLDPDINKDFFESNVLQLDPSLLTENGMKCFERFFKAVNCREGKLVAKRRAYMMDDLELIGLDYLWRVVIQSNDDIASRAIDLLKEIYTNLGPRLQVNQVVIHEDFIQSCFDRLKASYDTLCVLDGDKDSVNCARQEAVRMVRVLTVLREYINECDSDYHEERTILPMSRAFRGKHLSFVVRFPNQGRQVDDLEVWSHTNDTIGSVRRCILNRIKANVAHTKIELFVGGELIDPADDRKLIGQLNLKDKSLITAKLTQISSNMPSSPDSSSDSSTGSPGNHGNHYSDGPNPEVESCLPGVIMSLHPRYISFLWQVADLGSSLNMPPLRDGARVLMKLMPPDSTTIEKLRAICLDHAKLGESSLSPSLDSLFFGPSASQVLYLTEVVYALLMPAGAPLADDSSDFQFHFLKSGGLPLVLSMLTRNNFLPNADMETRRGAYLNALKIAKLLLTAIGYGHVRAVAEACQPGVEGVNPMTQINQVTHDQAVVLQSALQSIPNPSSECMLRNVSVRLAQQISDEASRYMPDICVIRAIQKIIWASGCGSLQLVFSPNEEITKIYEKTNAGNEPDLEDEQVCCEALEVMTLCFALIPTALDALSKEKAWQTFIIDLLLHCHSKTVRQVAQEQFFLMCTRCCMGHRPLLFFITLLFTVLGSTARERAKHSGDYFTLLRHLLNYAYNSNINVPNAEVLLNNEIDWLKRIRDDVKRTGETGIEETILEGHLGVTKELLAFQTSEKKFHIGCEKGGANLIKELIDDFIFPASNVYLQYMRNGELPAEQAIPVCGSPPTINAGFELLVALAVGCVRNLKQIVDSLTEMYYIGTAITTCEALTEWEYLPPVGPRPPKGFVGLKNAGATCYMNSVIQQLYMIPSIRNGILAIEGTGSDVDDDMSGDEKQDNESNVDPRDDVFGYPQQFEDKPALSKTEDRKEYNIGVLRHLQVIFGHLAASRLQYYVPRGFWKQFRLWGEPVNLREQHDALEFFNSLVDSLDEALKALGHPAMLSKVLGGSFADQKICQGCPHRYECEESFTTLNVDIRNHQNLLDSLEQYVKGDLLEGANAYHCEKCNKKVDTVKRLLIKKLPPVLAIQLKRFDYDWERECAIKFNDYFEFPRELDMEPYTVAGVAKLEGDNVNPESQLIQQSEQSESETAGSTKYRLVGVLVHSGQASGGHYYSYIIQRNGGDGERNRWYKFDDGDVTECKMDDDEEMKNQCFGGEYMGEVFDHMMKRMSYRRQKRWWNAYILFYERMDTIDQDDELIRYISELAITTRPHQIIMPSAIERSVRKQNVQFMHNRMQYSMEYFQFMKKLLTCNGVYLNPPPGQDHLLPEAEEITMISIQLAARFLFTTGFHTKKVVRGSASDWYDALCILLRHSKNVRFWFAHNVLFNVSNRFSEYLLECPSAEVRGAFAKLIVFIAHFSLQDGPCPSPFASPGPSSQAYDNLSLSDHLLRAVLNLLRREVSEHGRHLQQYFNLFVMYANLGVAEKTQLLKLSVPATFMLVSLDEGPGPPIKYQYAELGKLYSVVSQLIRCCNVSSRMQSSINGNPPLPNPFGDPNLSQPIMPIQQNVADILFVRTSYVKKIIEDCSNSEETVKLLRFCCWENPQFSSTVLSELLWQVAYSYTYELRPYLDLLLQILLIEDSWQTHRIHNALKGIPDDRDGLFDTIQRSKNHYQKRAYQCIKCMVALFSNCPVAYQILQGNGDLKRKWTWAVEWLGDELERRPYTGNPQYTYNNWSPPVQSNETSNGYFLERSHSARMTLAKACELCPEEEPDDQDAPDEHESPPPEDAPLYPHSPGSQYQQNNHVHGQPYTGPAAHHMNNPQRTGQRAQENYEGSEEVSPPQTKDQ

For assay [2], the target named is T1, USP9X. Kind of assay: USP9X enzyme activity assay, ubiquitin-rhodamine110 substrate.
Target sequence in this assay (Q93008 whole entry): as above
The target of assay [3] is T1, USP9X. In words: Biacore T200 surface plasmon resonance binding to immobilized USP9X. The note with it: 25° C. From the text:
The terms “inhibit” as used herein with respect to the activity of the USP9X inhibitor, refer to the ability to substantially antagonize, prohibit, prevent, restrain, slow, disrupt, alter, eliminate, stop, or reverse the progression or severity of, for example, the catalytic activity of a DUB such as USP9X, the survival or proliferation of a cancer cell, or a disease or condition associated with USP9X. […] In some embodiments, the compounds as described can inhibit USP9X by binding to an active site of USP9X. […] The binding activity is determined with a standard binding assay, such as a Biacore surface plasmon resonance instrument. […] The binding affinity KD is determined using a Biacore T200 instrument (GE Healthcare, Biacore). Ubiquitin aldehyde can be used as a reference in analyzing the inhibition results determined via Biacore. […]
USP9X was immobilized on a chip for surface plasmon resonance measurements via Biacore T200. Solutions of compound Compound 2A at various concentrations were flowed over the immobilized USP9X and the change in refractive index was monitored. […] The values of the maximum response for each concentration of Compound 2A were plotted and were consistent with a binding of the compound to a single site on USP9X with a dissociation equilibrium constant of 1.9 μM in reasonable agreement with value determined from the kinetic association and dissociation rates.
Target sequence in this assay (Q93008 whole entry): as above
A general note: Surface plasmon resonance follows binding to a sensor surface in real time, without labels.

Another assay deals with carbonic anhydrase. In words: Biacore binding to immobilized carbonic anhydrase (non-specific binding control).
A further assay has as its system BT-549. In words: ONCOLINES Profiler proliferation. The assay is classed as cell-based, human. The settings on record: BT-549, breast ductal carcinoma. The text has this: (§1) The compounds were profiled on an ONCOLINES™ Profiler (Netherlands Translational Research Center) assayed with 66 cancer cell lines to determine if they were capable of inhibiting the proliferation of these cancer cells.
(§2) To further evaluate potency of the compounds, they were compared with the USP9X inhibitor WP 1130 by screening both the compounds and WP1130 on a 66-cancer cell line panel ONCOLINES™ Profiler.

In another assay the test system is 66 cancer cell lines. Kind of assay: ONCOLINES Profiler, whole panel. In kind it is cell-based. The settings on record: in 3 of 66 cell lines.
Excerpt: The sensitivities of multiple cancer cells can be determined by screening the compounds on a cancer cell line panel, such as an ONCOLINES™ Profiler (Netherlands Translational Research Center) assayed with various tumor cell lines. For more information on ONCOLINES™ methods, see https://www.oncolines.com/oncolines/oncolines-explained-facts/. […] For example, Compound 7A inhibited the proliferation of 57 of the 66 cell lines being tested. […] “A tumor cell line sensitive to the compounds” is referred to that the proliferation of a tumor cell line, when contacted with the compounds, is inhibited by at least 50%, at least 60%, at least 70%, at least 80%, at least 85%, at least 90%, at least 91%, at least 92%, at least 93%, at least 94%, at least 95%, at least 96%, at least 97%, at least 98%, at least 99%, or 100%.
as §1, §2

In a further assay the target is UCH-L1 (Homo sapiens (Human), UniProt P09936). The settings on record: cited from earlier work.
The target of assay [4] is T1, USP9X. The settings on record: cited from earlier work.
Target sequence in this assay (Q93008 whole entry, species assumed): as the sequence (Q93008 whole entry) above
The next assay deals with USP5 (Homo sapiens (Human), UniProt P45974). The settings on record: cited from earlier work.
In a further assay the target is UCH37 (Homo sapiens (Human), UniProt Q9Y5K5). The note with it: cited from earlier work.
The next assay deals with USP14 (Homo sapiens (Human), UniProt P54578). The settings on record: cited from earlier work.
The test system of a further assay is DU 145. Kind of assay: ONCOLINES Profiler proliferation. The assay is classed as cell-based. The settings on record: DU 145, prostate carcinoma.
Excerpt: as §1, §2

In another assay the test system is A549. Kind of assay: ONCOLINES Profiler proliferation. In kind it is cell-based. The note with it: A549, lung.
Excerpt: as §1, §2

The test system of the next assay is A-172. In words: ONCOLINES Profiler proliferation. The assay is classed as cell-based. The note with it: A-172, glioblastoma.
Excerpt: as §1, §2

The subject of a further assay is RPMI-7951. Kind of assay: ONCOLINES Profiler proliferation. In kind it is cell-based. The settings on record: RPMI-7951, malignant melanoma.
Excerpt: as §1, §2

Another assay deals with RKO. Kind of assay: ONCOLINES Profiler proliferation. In kind it is cell-based. The settings on record: colon carcinoma.
Excerpt: as §1, §2

The subject of a further assay is BT-20. In words: ONCOLINES Profiler proliferation. In kind it is cell-based. The settings on record: BT-20, breast carcinoma.
Excerpt: as §1, §2

The subject of another assay is MOLT-4. In words: ONCOLINES Profiler proliferation. The assay is classed as cell-based. The note with it: MOLT-4, acute lymphoblastic leukemia.
Excerpt: as §1, §2

For another assay, the system named is H82. Kind of assay: ONCOLINES Profiler proliferation. In kind it is cell-based. The note with it: H82, small cell lung.
Excerpt: as §1, §2

The subject of a further assay is Hs 57BT. Kind of assay: ONCOLINES Profiler proliferation. The note with it: Hs 57BT (Hs578T), breast carcinoma. In kind it is cell-based.
Excerpt: as §1, §2

The next assay concerns CCRF-CEM. Kind of assay: ONCOLINES Profiler proliferation. The note with it: acute lymphoblastic leukemia. The assay is classed as cell-based.
Excerpt: as §1, §2

In a further assay the test system is LoVo. Kind of assay: ONCOLINES Profiler proliferation. In kind it is cell-based. The settings on record: colorectal adenocarcinoma.
Excerpt: as §1, §2

Read-outs that look alike come from different tables or passages of the source.

Chain of UCH37 (Q9Y5K5 whole entry, species assumed): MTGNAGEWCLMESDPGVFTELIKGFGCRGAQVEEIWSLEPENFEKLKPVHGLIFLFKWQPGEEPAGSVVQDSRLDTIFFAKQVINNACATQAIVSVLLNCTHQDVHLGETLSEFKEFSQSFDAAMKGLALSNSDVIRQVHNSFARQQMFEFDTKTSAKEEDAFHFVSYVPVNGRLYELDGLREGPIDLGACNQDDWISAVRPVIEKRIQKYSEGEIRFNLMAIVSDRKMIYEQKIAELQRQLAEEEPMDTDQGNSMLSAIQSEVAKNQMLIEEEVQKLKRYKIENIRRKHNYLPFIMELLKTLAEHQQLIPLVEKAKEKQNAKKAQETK
Chain of USP14 (P54578 whole entry, species assumed): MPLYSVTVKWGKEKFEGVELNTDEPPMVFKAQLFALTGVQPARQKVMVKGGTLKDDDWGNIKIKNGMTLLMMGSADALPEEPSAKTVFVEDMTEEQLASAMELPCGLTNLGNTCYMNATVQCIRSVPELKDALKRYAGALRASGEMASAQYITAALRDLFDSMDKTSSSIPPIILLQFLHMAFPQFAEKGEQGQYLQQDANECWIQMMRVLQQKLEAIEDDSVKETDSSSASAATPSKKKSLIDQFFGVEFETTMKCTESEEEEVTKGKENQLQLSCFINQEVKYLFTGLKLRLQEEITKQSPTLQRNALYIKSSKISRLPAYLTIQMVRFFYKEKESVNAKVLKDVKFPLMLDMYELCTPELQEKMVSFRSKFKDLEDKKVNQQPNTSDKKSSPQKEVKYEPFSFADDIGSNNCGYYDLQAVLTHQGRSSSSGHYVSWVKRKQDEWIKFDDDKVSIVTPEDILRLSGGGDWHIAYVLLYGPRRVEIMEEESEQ
Chain of UCH-L1 (P09936 whole entry, species assumed): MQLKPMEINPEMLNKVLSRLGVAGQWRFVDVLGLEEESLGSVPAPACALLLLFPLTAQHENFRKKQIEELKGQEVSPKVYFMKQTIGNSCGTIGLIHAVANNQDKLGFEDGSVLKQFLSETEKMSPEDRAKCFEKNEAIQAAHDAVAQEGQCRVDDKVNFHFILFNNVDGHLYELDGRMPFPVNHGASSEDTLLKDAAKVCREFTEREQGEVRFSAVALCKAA
Chain of USP5 (P45974 whole entry, species assumed): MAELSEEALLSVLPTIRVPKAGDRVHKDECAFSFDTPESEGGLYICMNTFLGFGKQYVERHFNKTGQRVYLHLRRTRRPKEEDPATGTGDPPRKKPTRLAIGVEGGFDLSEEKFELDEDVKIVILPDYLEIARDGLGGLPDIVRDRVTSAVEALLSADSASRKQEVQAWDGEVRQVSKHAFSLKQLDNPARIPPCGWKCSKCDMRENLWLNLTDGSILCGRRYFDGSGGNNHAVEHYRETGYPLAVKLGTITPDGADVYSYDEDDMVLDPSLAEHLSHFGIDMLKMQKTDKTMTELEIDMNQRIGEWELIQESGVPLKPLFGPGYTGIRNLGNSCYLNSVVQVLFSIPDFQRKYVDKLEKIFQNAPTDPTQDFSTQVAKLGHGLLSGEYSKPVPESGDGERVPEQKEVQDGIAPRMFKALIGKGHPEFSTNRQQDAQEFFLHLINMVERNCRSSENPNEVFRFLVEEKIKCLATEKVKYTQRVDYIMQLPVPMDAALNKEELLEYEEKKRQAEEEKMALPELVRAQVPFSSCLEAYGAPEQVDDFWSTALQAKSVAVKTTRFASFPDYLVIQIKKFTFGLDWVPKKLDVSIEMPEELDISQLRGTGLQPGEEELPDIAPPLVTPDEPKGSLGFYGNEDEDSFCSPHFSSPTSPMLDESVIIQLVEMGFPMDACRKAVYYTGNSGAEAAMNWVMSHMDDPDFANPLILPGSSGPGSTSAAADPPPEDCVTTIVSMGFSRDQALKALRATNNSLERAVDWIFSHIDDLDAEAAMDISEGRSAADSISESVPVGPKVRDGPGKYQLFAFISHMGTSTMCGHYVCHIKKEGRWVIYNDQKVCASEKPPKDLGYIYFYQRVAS

On to `CC(C)(C)C[C@@H]1NC(=O)c2cccc(c2)CNC(=O)c2ccc(cc2)OCCNC(=O)CC(C)(C)CC(=O)N[C@H](C(=O)O)Cc2ccc(cc2)NC1=O` [Compound 2A], for which, on USP9X [1], the “KS” value is 0.95 µM, the “VMAX RFU/min” value turned out to be 310 RFU/min, the mode of inhibition result is recorded as “hyperbolic mixed inhibition” and the α is on record as 1.73. Further, the β on USP9X [1] is 0.71. Further, at USP9X [1] (from the slope of the 1/Δ intercept vs 1/[I] plot, read-out: KI, nM (1)), the Ki was found to be 120 nM. In addition, at USP9X [1] (from the y intercept of the 1/Δ slope vs 1/[I] plot, read-out: KI, nM (2)), the Ki came to 290 nM. Besides, the “reduction of USP9X activity” value on USP9X [2] (higher concentrations of compound (>10 μM)) is given as “approximately 60%”. For the same compound, the IC50 at USP9X [2] (read-out: IC50 for the inhibition of USP9X activity, ubiquitin-rhodamine110 substrate) came to 390 nM. Further, the IC50 on USP9X [2] (read-out: USP9X IC50 nM, Table 2) was 390 nM. Besides, the Kd on USP9X [3] (read-out: dissociation equilibrium constant from maximum response vs concentration, single site) was 1.9 µM. Moreover, on USP9X [3] (read-out: equilibrium dissociation constant KD from ratio of dissociation to association rate constant), the Kd came to 0.48 µM. Further, the “binding to immobilized carbonic anhydrase” value in the assay with carbonic anhydrase was “did not bind”.

Regarding `CCC[C@H](NC(=O)/C(C#N)=C/c1cccc(Br)n1)c1ccccc1` [WP1130, reference compound], the concentration for half-maximal inhibition (IC50) in the assay on BT-549 came out at 5.4 µM; with DU 145 it was 9.6 µM; in the assay on A549, 14 µM; with A-172, 5.6 µM; in the assay with RPMI-7951, 4.2 µM; in the assay on RKO, 4.3 µM. Further, the half-maximal inhibitory concentration (IC50) with BT-20 worked out at 5.1 µM; in the assay with MOLT-4 it was 4 µM; in the assay on H82 it was 6.6 µM; in the assay with Hs 57BT, 6.3 µM; in the assay with CCRF-CEM, 4.4 µM; in the assay with LoVo, 5.5 µM. Besides, in the assay with 66 cancer cell lines, the “fold more potent than Compound 7A” value was “above 4 fold”. The “inhibits UCH-L1” value at UCH-L1 is on record as “inhibited”. The “inhibits USP9X” value on USP9X [4] is recorded as “inhibited”. On USP5, the “inhibits USP5” value was “inhibited”. In addition, the “inhibits UCH37” value at UCH37 was “inhibited”. In addition, on USP14, the “inhibits USP14” value is reported as “inhibited”.

The term Ki denotes the equilibrium dissociation constant of an inhibitor or competing ligand from its target. What is called IC50 is the midpoint of a concentration-inhibition curve.
